Patent publication US4444753A, “Pharmaceutical composition comprising extract from poison pouch contents of bee” (priority 1979, dated 1984)

What was measured:
[1] = system: Ehrlich's ascites cancerous cells; test: Enhancement of carcinostatic activity of Carboquan or Adriamycin to Ehrlich's ascites cancer cells (Table 10); type: in vivo, mouse (ICR-strain); conditions: 1×10^5 cells, B-TL 1/10 none or 0.25 ml × 7 s.c.
Description: (2) Ehrlich's ascites cancerous cells were inoculated intraperitoneally into ICR-strain mice male, 6 weeks old) in an amount of 1×10^5 cells per mouse. B-TL 1/10 was administered subcutaneously at the back at a dose of 0.25 ml per mouse once a day repeatedly from the day of inoculation for 7 days in total. On the day following the inoculation of the cancerous cells, 0.25 mg/kg of Carboquan (CQ) or 5 mg/kg of Adriamycin (AM) was administered intraperitoneally.

[2] = system: B-16 melanoma cancerous cells; test: Enhancement of carcinostatic activity of Adriamycin to B-16 melanoma cancerous cells (Table 12); type: in vivo, mouse (BDF1-strain); conditions: 0.2 g cells i.p.; AM 2 mg/kg i.p., B-TL 1/10 none or 0.25 ml × 7 s.c.
Description: Fifteen grams of B-16 melanoma cell cluster was milled by means of a mesh, and then suspended in 15 ml of a physiological salt solution, after which the resulting suspension was transplanted intraperitoneally in BDF1 -strain mice (male, 6 weeks old) in an amount of 0.2 ml per mouse (i.e., 0.2 g of the cells were transplanted per mouse). B-TL 1/10 was administered subcutaneously at the back at a dose of 0.25 ml per mouse once a day for 7 days from the day of transplantation. Adriamycin (AM) was administered intraperitoneally once at a dose of 2 mg/kg on the day following the day of cancer transplantation.

L-1210 leukemia cells [3] = test: Enhancement of carcinostatic activity of Arabinofuranocylcytocine to L-1210 leukemia cells (Table 6); type: in vivo, mouse (BDF1-strain); conditions: 1×10^3 cells; Ara-C 30 mg/kg × 5 i.p., B-TL 1/10 none or 0.25 ml × 7 s.c.
Description: (3) L-1210 leukemia cells were inoculated intraperitoneally into BDF1 -strain mice (male, 6 to 7 weeks old) in an amount of 1×10^3 cells per mouse, and B-TL 1/10 was administered subcutaneously at the back at a dose of 0.25 ml per mouse once a day repeatedly from the day of inoculation for 7 days in total. Arabinofuranocylcytocine (Ara-C) was administered intraperitoneally at a dose of 30 mg/kg once a day from the day following the inoculation of the cancerous cells for 5 days in total.

[4] = system: Ehrlich's ascites cancer cells; test: Enhancement of carcinostatic activity of Mitomycin C to Ehrlich's ascites cancer cells (Table 9); type: in vivo, mouse (ICR-strain); conditions: 1×10^5 cells; MMC 0.5 mg/kg i.p.
Description: (1) Ehrlich's ascites cancer cells were inoculated intraperitoneally into ICR-strain mice (female, 6 weeks old) in an amount of 1×10^5 cells per mouse, and B-TL 1/10 was administered subcutaneously at the back at a dose of 0.25 ml per mouse once a day repeatedly from the third day after the inoculation of the cancerous cells for 7 days in total. Mitomycin C (MMC) was administered intraperitoneally at a dose of 0.5 mg/kg on the first day after the inoculation of the cancerous cells.

[5] = system: Ehrlich's ascites cancerous cells; test: Enhancement of carcinostatic activity of Mitomycin C to Ehrlich's ascites cancer cells, B-TL 1/10 pretreatment (Table 11); type: in vivo, mouse (ICR-strain); conditions: 1×10^5 cells, B-TL 1/10 none or 0.25 ml × 8 s.c.
Description: (3) B-TL 1/10 was administered subcutaneously at the back of ICR-strain mice (male, 5 weeks old) at a dose of 0.25 ml per mouse once a day repeatedly for 8 days in total, and on the day following the eighth administration, 1×10^5 Ehrlich's ascites cancerous cells were inoculated intraperitoneally. On the day following the inoculation of the cancerous cells, Mitomycin C (MMC) was administered intraperitoneally at a dose of 0.5 mg/kg or 1 mg/kg.

P-388 leukemia cells = test: Enhancement of carcinostatic activity of Mitomycin C to P-388 leukemia cells (Table 8); type: in vivo, mouse (BDF1-strain); conditions: 1×10^3 cells; MMC 0.5 mg/kg i.p., B-TL 1/10 none or 0.25 ml × 7 s.c.
Description: P-388 leukemia cells were inoculated intraperitoneally into BDF1 -strain mice (male, 7 weeks old) in an amount of 1×10^3 cells per mouse, and B-TL 1/10 was administered subcutaneously at the back at a dose of 0.25 ml per mouse on the day of inoculation and thereafter administered subcutaneously at the back at the same dose once a day repeatedly for 7 days. Mitomycin C (MMC) was administered intraperitoneally at a dose of 0.5 mg/kg on the first day after the inoculation of the P-388 leukemia cells.

L-1210 leukemia cells [6] = test: Enhancement of carcinostatic activity of Mitomycin C to subcutaneous L-1210 tuberous tumor (Table 7); type: in vivo, mouse (BDF1-strain)
Description: (4) L-1210 leukemia cells were inoculated subcutaneously at the armpit of BDF1 -strain mice (male, 7 weeks old) in an amount of 1×10^6 cells per mouse to form a tuberous tumor. B-TL 1/10 was administered subcutaneously at the back at a dose of 0.25 ml per mouse once a day repeatedly from the first day after the inoculation of the cancerous cells for 7 days in total, and Mitomycin C was administered into the tumor at a dose of 4 mg/kg on the first day after the inoculation of the cancerous cells.

L-1210 leukemia cells [7] = test: Enhancement of carcinostatic activity of Mitomycin C to L-1210 leukemia cells, divided B-TL 1/10 dosing (Table 5); type: in vivo, mouse (BDF1-strain); conditions: MMC 4 mg/kg
Description: (§1) (1) L-1210 leukemia cells were inoculated intraperitoneally into BDF1 -strain mice (male, 6 to 7 weeks old) in an amount of 1×10^3, 1×10^4 or 1×10^5 cells per mouse, B-TL 1/10 was administered subcutaneously at the back at a dose of 0.25 ml per mouse once a day repeatedly from the day of inoculation for 7 days in total. Mitomycin C (MMC) was administered intraperitoneally at a dose of 4 mg/kg on the first day after the inoculation of the cancerous cells.
(2) In the same manner as in (1), L-1210 leukemia cells were inoculated and MMC and the B-T were administered. B-TL 1/10 was administered subcutaneously at the back, […], and once on the third, 4th, 5th and 6th days after the inoculation.

L-1210 leukemia cells [8] = test: Enhancement of carcinostatic activity of Mitomycin C to L-1210 leukemia cells (Table 4); type: in vivo, mouse (BDF1-strain); conditions: for Number of survivors/Number of tested mice (on the 38th day) / T/C (%): MMC 4 mg/kg i.p., B-TL 1/10 none or 0.25 ml × 7 s.c.
Description: as §1

Escherichia coli TK-16 [9] = test: Antibacterial activity-enhancing effect with Piperacillin in Escherichia coli infection (Table 17); type: in vivo, Escherichia coli; ICR-strain mice; conditions: for Number of survivors: 2×10^7 cells/mouse, 5 mice, 7th day
Description: Escherichia coli TK-16 was administered intraperitoneally into a group of five ICR-strain mice (male, 4 weeks old) in an amount of 2×10^7 cells/mouse, and after one hour, Piperacillin was administered once subcutaneously at the back. B-TL 1/5 was administered subcutaneously at the back at a dose of 0.25 ml per mouse once a day on the 7th, 6th and 5th days before the inoculation of the bacteria, and B-TL 1/10 at a dose of 0.25 ml per mouse once a day on the second and first days before the inoculation of the bacteria. A physiological salt solution was administered to the control group in the same manner as above, and the numbers of the survivors on the 7th day after the inoculation of the bacteria were observed.

Escherichia coli TK-16 [10] = test: Infection-controlling effect at a low immunity (cyclophosphamide-treated mice, Table 16); type: in vivo, Escherichia coli; ICR-strain mice; conditions: for Number of survivors: 15 mice, cyclophosphamide 100 mg/kg, 7th day
Description: Cyclophosphamide was administered intraperitoneally into a group of fifteen ICR-strain mice (male, 4 weeks old) at a dose of 100 mg/kg. On the next day, B-TL 1/10 was administered subcutaneously at the back at a dose of 0.25 ml per mouse once a day repeatedly for 4 days, and a physiological salt solution was administered to the contorl group in the same manner as described above. On the day following the administration of B-TL 1/10, Escherichia coli TK-16 was administered intraperitoneally, and the numbers of the survivors on the 7th day after the inoculation of the bacteria were observed.

[11] = 1×10^6 cells s.c., MMC 4 mg/kg into the tumor, B-TL 1/10 none or 0.25 ml × 7 s.c.

COC(COC(N)=O)C1=C(N2CC2)C(=O)C(C)=C(N2CC2)C1=O (racemic) [CQ, Carboquan]
Number of survivors/Number of tested mice (on the 40th day) ([1]; CQ 0.25 mg/kg i.p.): 0/4 | T/C (%) ([1]; CQ 0.25 mg/kg i.p.): 138%

COc1cccc2c1C(=O)c1c(O)c3c(c(O)c1C2=O)C[C@@](O)(C(=O)CO)C[C@@H]3O[C@H]1C[C@H](N)[C@H](O)[C@H](C)O1 [AM, Adriamycin]
Number of survivors/Number of tested mice (on the 35th day) [2]: 1/4 | T/C (%) [2]: 182% | Number of survivors/Number of tested mice (on the 40th day) ([1]; AM 5 mg/kg i.p.): 2/4 | T/C (%) ([1]; AM 5 mg/kg i.p.): 175%

Nc1ccn([C@@H]2O[C@H](CO)[C@@H](O)[C@@H]2O)c(=O)n1 [Ara-C, Arabinofuranocylcytocine]
Number of survivors/Number of tested mice (on the 30th day) (L-1210 leukemia cells [3]): 0/4 | T/C (%) (L-1210 leukemia cells [3]): 152%

CO[C@@]12[C@H](COC(N)=O)C3=C(C(=O)C(C)=C(N)C3=O)N1C[C@@H]1N[C@@H]12 [MMC, Mitomycin C]
Number of survivors/Number of tested mice (on the 40th day) [4]: 1/10 | T/C (%) [4]: 158% | Number of survivors/Number of tested mice (on the 40th day) ([5]; MMC 0.5 mg/kg i.p.): 1/5 | T/C (%) ([5]; MMC 0.5 mg/kg i.p.): 157% | Number of survivors/Number of tested mice (on the 40th day) ([5]; MMC 1 mg/kg i.p.): 0/5 | T/C (%) ([5]; MMC 1 mg/kg i.p.): 172% | Number of survivors/Number of tested mice (on the 41st day) (P-388 leukemia cells): 0/3 | T/C (%) (P-388 leukemia cells): 101% | Number of survivors/Number of tested mice (on the 30th day) (L-1210 leukemia cells [6]; [11]): 4/5 | T/C (%) (L-1210 leukemia cells [6]; [11]): 304% | Weight of tumor, Ratio to Control (L-1210 leukemia cells [6]; 30th day versus control measured on 8-10th day (control = 100)): 156 | Weight of tumor (L-1210 leukemia cells [6]; on the 30th day, 4 survivors among 5, MMC 4 mg/kg, B-TL 1/10 none or 0.25 ml × 7): 808 ± 461 mg | Number of survivors/Number of tested mice (on the 40th day) (L-1210 leukemia cells [7]; 1 × 10^3 cells/mouse): 1/4 | T/C (%) (L-1210 leukemia cells [7]; 1 × 10^3 cells/mouse): 187% | Number of survivors/Number of tested mice (on the 40th day) (L-1210 leukemia cells [7]; 1 × 10^4 cells/mouse): 1/4 | T/C (%) (L-1210 leukemia cells [7]; 1 × 10^4 cells/mouse): 202% | Number of survivors/Number of tested mice (on the 40th day) (L-1210 leukemia cells [7]; 1 × 10^5 cells/mouse): 0/4 | T/C (%) (L-1210 leukemia cells [7]; 1 × 10^5 cells/mouse): 136% | Number of survivors/Number of tested mice (on the 38th day) (L-1210 leukemia cells [8]; 1 × 10^3 cells/mouse): 4/13 | T/C (%) (L-1210 leukemia cells [8]; 1 × 10^3 cells/mouse): 192% | life-prolonging effect (in words) (L-1210 leukemia cells [8]; 1×10^3 cells, same tendency at 1×10^4 and 1×10^5): a life-prolonging effect was observed | Number of survivors/Number of tested mice (on the 38th day) (L-1210 leukemia cells [8]; 1 × 10^4 cells/mouse): 2/9 | T/C (%) (L-1210 leukemia cells [8]; 1 × 10^4 cells/mouse): 188% | Number of survivors/Number of tested mice (on the 38th day) (L-1210 leukemia cells [8]; 1 × 10^5 cells/mouse): 0/4 | T/C (%) (L-1210 leukemia cells [8]; 1 × 10^5 cells/mouse): 136%

CCN1CCN(C(=O)N[C@@H](C(=O)N[C@@H]2C(=O)N3[C@@H]2SC(C)(C)[C@@H]3C(=O)O)c2ccccc2)C(=O)C1=O [Piperacillin]
Number of survivors (Escherichia coli TK-16 [9]; Piperacillin 0.156 mg/mouse s.c.): 0 | Number of survivors (Escherichia coli TK-16 [9]; Piperacillin 0.313 mg/mouse s.c.): 0 | Number of survivors (Escherichia coli TK-16 [9]; Piperacillin 0.625 mg/mouse s.c.): 1 | Number of survivors (Escherichia coli TK-16 [9]; Piperacillin 1.25 mg/mouse s.c.): 0 | Number of survivors (Escherichia coli TK-16 [9]; Piperacillin 2.5 mg/mouse s.c.): 2 | ED50 (Escherichia coli TK-16 [9]; Piperacillin dose, without or with B-TL 1/5 then B-TL 1/10 pretreatment): 3.54 mg/mouse

O=P1(N(CCCl)CCCl)NCCCO1 (centres unmarked) [cyclophosphamide, Cyclophosphamide]
Number of survivors (Escherichia coli TK-16 [10]; 1.0 × 10^6 cells/mouse): 3 | Number of survivors (Escherichia coli TK-16 [10]; 2.0 × 10^5 cells/mouse): 10 | Number of survivors (Escherichia coli TK-16 [10]; 3.0 × 10^5 cells/mouse): 10 | Number of survivors (Escherichia coli TK-16 [10]; 4.0 × 10^5 cells/mouse): 6 | Number of survivors (Escherichia coli TK-16 [10]; 8.0 × 10^5 cells/mouse): 4 | LD50 versus control (in words) (Escherichia coli TK-16 [10]; Table 16): significantly lower | LD50 (of bacteria) (Escherichia coli TK-16 [10]; cyclophosphamide 100 mg/kg i.p., without or with B-TL 1/10 0.25 ml s.c. × 4 days): 2.7 × 10^5 cells/mouse | infection-controlling effect (in words) (Escherichia coli TK-16 [10]; mice given cyclophosphamide): the inhibition of the infection-controlling effect was confirmed
